Experimental data taken from patent US20200236933A1, “USE OF A NON-IONIC SURFACTANT WHICH IS A POLYOL DERIVATIVE AS A PLANT GROWTH STIMULATING AGENT OR AS AN ADJUVANT” (priority 2017, published 2020).

Legend:
Aspergillus niger = assay: Fungicide effect by antibiogram type method; assay type: cell-based; details: positive control
Text: In order to evaluate any impact of the sugar esters used according to the invention on microorganisms, the fungicide effect was searched for by an antibiogram type method. The method consists of: • spreading a solution contaminated with the mold Aspergillus niger on the surface of a Petri dish containing glucose gel growth medium with chloramphenicol. • arrange 4 sterile antibiogram disks of 6 mm diameter per Petri dish. • inoculate with 3 drops (0.071 g) of solution to test or control solution per disk. The dishes are next placed in the incubator at 25° C. for 5 days. Measurement of the inhibitory diameter is carried out every day.

maize seeds = assay: Germination of maize seeds, comparison of surfactants (Examples 13-19); assay type: in vivo; details: maize seeds immersed 1 h in 0.75% solution
Experimental: The treatment of the maize seeds consists of immersing them 1 h in a solution comprising water alone (control batch) or in a solution composed of 98.25% water and 0.75% of a polyol derivative non-ionic surfactant (treated batch, Sub4). The seeds are next dried in a heating tunnel at 45° C. for one hour. Two batch repetitions of 16 seeds are deposited on Petri dishes containing a medium composed of 2% Agar Agar and 98% water. The Petri dishes are kept at ambient temperature and in darkness. Each day the number of seeds that have germinated (having a radicle) is counted. The treatment of the maize seeds consists of immersing them 1 h in a solution comprising water alone (control batch) or in a solution composed of 98.25% water and 0.75% of a polyol derivative non-ionic surfactant (treated batch, Sub1). The seeds are next dried in a heating tunnel at 45° C. for one hour. Two batch repetitions of 16 seeds are deposited on Petri dishes containing a medium composed of 2% Agar Agar and 98% water. The Petri dishes are kept at ambient temperature and in darkness. Each day the number of seeds that have germinated (having a radicle) is counted. The treatment of the maize seeds consists of immersing them 1 h in a solution comprising water alone (control batch) or in a solution composed of 98.25% water and 0.75% of a polyol derivative non-ionic surfactant (treated batch, Sub7). The seeds are next dried in a heating tunnel at 45° C. for one hour. Two batch repetitions of 16 seeds are deposited on Petri dishes containing a medium composed of 2% Agar Agar and 98% water. The Petri dishes are kept at ambient temperature and in darkness. Each day the number of seeds that have germinated (having a radicle) is counted. The treatment of the maize seeds consists of immersing them 1 h in a solution comprising water alone (control batch) or in a solution composed of 98.25% water and 0.75% of a polyol derivative non-ionic surfactant (treated batch, Sub2). The seeds are next dried in a heating tunnel at 45° C. for one hour. Two batch repetitions of 16 seeds are deposited on Petri dishes containing a medium composed of 2% Agar Agar and 98% water. The Petri dishes are kept at ambient temperature and in darkness. Each day the number of seeds that have germinated (having a radicle) is counted. The treatment of the maize seeds consists of immersing them 1 h in a solution comprising water alone (control batch) or in a solution composed of 98.25% water and 0.75% of a polyol derivative non-ionic surfactant (treated batch, Sub3). The seeds are next dried in a heating tunnel at 45° C. for one hour. Two batch repetitions of 16 seeds are deposited on Petri dishes containing a medium composed of 2% Agar Agar and 98% water. The treatment of the maize seeds consists of immersing them 1 h in a solution comprising water alone (control batch) or in a solution composed of 98.25% water and 0.75% of a polyol derivative non-ionic surfactant (treated batch, Sub6). The seeds are next dried in a heating tunnel at 45° C. for one hour. Two batch repetitions of 16 seeds are deposited on Petri dishes containing a medium composed of 2% Agar Agar and 98% water. The treatment of the maize seeds consists of immersing them 1 h in a solution comprising water alone (control batch) or in a solution composed of 98.25% water and 0.75% of a polyol derivative non-ionic surfactant (treated batch, Sub5). The seeds are next dried in a heating tunnel at 45° C. for one hour. Two batch repetitions of 16 seeds are deposited on Petri dishes containing a medium composed of 2% Agar Agar and 98% water. The Petri dishes are kept at ambient temperature and in darkness. Each day the number of seeds that have germinated (having a radicle) is counted.

Row | Compound | germination rate (maize seeds; D1) | germination rate (maize seeds; D2) | other results
1 | Fc1ccc([C@]2(Cn3cncn3)O[C@H]2c2ccccc2Cl)cc1 (racemic) [Epoxiconazole, reference compound] |  |  | Inhibitory diameter (Aspergillus niger; D1): 0 mm; Inhibitory diameter (Aspergillus niger; D2): 32 mm; Inhibitory diameter (Aspergillus niger; D3): 30 mm; Inhibitory diameter (Aspergillus niger; D4): 30 mm; Inhibitory diameter (Aspergillus niger; D5): 29 mm
2 | CCCCCCCCCCCC(=O)N(C)C[C@H](O)[C@@H](O)[C@H](O)[C@H](O)CO [N-lauroyl-N-methyl glucamide] | 28% | 65% | 
3 | CCCCCCCCCCO[C@@H]1O[C@H](CO)[C@@H](O)[C@H](O)[C@H]1O [decyl glucoside, Decyl glucoside] | 19% | 84% | 
4 | Glucose stearate | 34% | 78% | 
5 | Methylglucose dioleate | 18% | 65% | 
6 | Polyethoxylated sorbitan laurate | 25% | 78% | 
7 | Sorbitan laurate | 31% | 78% | 
8 | Sucrose palmitate | 28% | 78% | 
